Experimental data: paper PMC10721786, “Development of a potent benzonitrile-based inhibitor of glutaminyl-peptide cyclotransferase-like protein (QPCTL) with antitumor efficacy” (Signal Transduction and Targeted Therapy, 2023)

Tests used:
B16F10 cells = test: Tumor challenge: B16F10 tumors in C57BL/6 mice; assay type: in vivo; conditions: B16F10 in C57BL/6 mice, anti-CD3 antibody 200 µg/mouse, QP5038 25 mg/kg daily
Procedure: C57BL/6 mice were obtained from Shanghai Slaccas Laboratory Animal Co., Ltd.. Male mice were implanted subcutaneously with 1 x 10^^6 B16F10 cells resuspended in 100μL of DMEM on Day 0. Anti-PD-1 (Clone RMP1-14, BioXCell, Cat. # BE0146) or mouse IgG2a isotype control (Clone 2A3, BioXCell, Cat. # BE0089) was dosed at 80 µg per mouse intraperitoneally starting on day 12 after tumor implantation, followed by a once-a-week regimen. QPCTL inhibitor was intraperitoneally administered at 25 mg/kg once a day. Tumors were measured daily, and mice were sacrificed 24 days after tumor challenge. Tumor volumes were measured in two dimensions (length and width) and the volume was calculated using the formula, tumor size (mm^3) = (length × width^2) × 0.5.
Briefly, male mice were implanted subcutaneously with 5 x 10^5 B16F10 cells resuspended in 100 μL of DMEM on Day 0. Anti-PD-1 antibody or mouse IgG2a isotype control was dosed at 80 µg per mouse intraperitoneally starting on day 6 after tumor implantation, followed by a once-a-week regimen. QPCTL inhibitors was intraperitoneally administered at 25 mg/kg once a day since day 6. Tumors were measured every three days, and mice were sacrificed on day 15. […]
Tumor challenge with T cell depletion. […] Animal weights and tumor volumes were measured twice weekly throughout the study. […] Data were acquired on flow cytometry analyzer and analyzed using Flowjo software.

pGlu-CD47 = test: Flow cytometry of pGlu-CD47 (hCD47-CC2C6 binding) in HEK293T cells; assay type: cell-based, human
Procedure: Binding to cell surface CD47 was assessed by staining cells with fluorochrome-labeled antibodies clone CC2C6 (BioLegend, Cat. # 323102) and B6H12 (Abcam, Cat. # ab134485) to human CD47 at a dilution of 1:100 in PBS containing 1% FBS (FACS buffer) for 30 min on ice, while protected from light. SIRPα binding to CD47 was assessed by incubating cells with PE labeled recombinant human SIRPα/ CD172α Protein, Fc tag (ACRO Biosystems, Cat. # SIA-HP252) or PE labeled mouse SIRPα Protein, His tag (ACRO Biosystems, Cat. # SIA-MP2H6) for 1 hour on ice, while protected from light.

[1] = In vivo toxicity in mice (blood routine, serum biochemistry, HE histology); set-up: species or system mouse
Procedure: Briefly, male mice were implanted subcutaneously with 5 x 10^5 B16F10 cells resuspended in 100 μL of DMEM on Day 0. Anti-PD-1 antibody or mouse IgG2a isotype control was dosed at 80 µg per mouse intraperitoneally starting on day 6 after tumor implantation, followed by a once-a-week regimen. QPCTL inhibitors was intraperitoneally administered at 25 mg/kg once a day since day 6. Tumors were measured every three days, and mice were sacrificed on day 15. Mouse organs and blood were collected for blood routine, blood serum biochemistry examination and histological evaluation.
Blood routine and blood serum biochemistry examination of mice. Whole blood was collected in EDTA anticoagulant tubes for blood routine test and heparin sodium tubes for blood serum biochemistry examination. Tubes were gently inverted several times to thoroughly mix the blood and anticoagulant. The routine blood test was tested by Automatic Hematology Analyzer (TEK8500H4-0502, TECOM SCIENCE, China). Blood serum was obtained by centrifugation at 4℃ at 4000 rpm for 10 minutes. Serum creatinine (CR) was determined by CR kit (PUREBIO, Cat. # CR01), urea nitrogen (BUN) was determined by BUN kit (PUREBIO, Cat. # URE01), alanine aminotransferase (ALT) was determined by ALT kit (PUREBIO, Cat. # ALT01) and […] was determined by AST kit (PUREBIO, Cat. # AST01) according to the manufacturer’s instructions. […]

Cn1cncc1C1CCN(c2c(C#N)cccc2-c2ccc(F)nc2)CC1 [QP5038]
enhancement of anti-PD-1 antibody-mediated tumor inhibition under T cell depletion (B16F10 cells): blocked the enhancement | inhibitory effect on CD47 pyroglutamation compared to SEN177 and PQ912 (pGlu-CD47; 100 nM, 48 h): superior inhibitory effects | IC50 (pGlu-CD47; Homo sapiens, HEK-293T, treatment 48 h, read-out: IC50, dose-dependent inhibition of pGlu-CD47): 3.3 ± 0.5 nM | organ damage (HE staining) ([1]; C57B/L6 mice, 25 mg/kg daily for 15 days, Fig. S10): would not cause | abnormal blood composition ([1]; mice, 25 mg/kg daily, Fig. S11): would not cause
